Data as given in article PMC11679778, “Jeju Citrus (Citrus unshiu) Leaf Extract and Hesperidin Inhibit Small Intestinal α-Glucosidase Activities In Vitro and Postprandial Hyperglycemia in Animal Model” (International Journal of Molecular Sciences, 2024).

Legend:
[1] = target: T1, maltase (rat small intestinal); test: liberated glucose by glucose oxidase method; type: biochemical; conditions: crude rat intestinal acetone powder supernatant; maltose substrate; 0.1 M phosphate pH 7.0
T1 construct: gene Mgam; native; crude supernatant of commercial rat intestinal acetone powder (Sigma-Aldrich), not purified; maltose as substrate
Description: liberated glucose by glucose oxidase method on maltase (rat small intestinal)

[2] = target: T2, rat small intestinal α-glucosidase; test: pNPG hydrolysis, absorbance […] nm; type: biochemical; conditions: crude rat intestinal acetone powder supernatant; pNPG substrate; 0.1 M phosphate pH 6.9, 37 °C
T2 construct: gene Mgam; native; crude supernatant of commercial rat intestinal acetone powder (Sigma-Aldrich), not purified; pNPG as substrate

HP [1]: 1.04 ± 0.03 mg/mL | HP [2]: 0.99 ± 0.14 mg/mL
SMILES: COc1ccc([C@@H]2CC(=O)c3c(O)cc(O[C@@H]4O[C@H](CO[C@@H]5O[C@@H](C)[C@H](O)[C@@H](O)[C@H]5O)[C@@H](O)[C@H](O)[C@H]4O)cc3O2)cc1O [hesperidin]
